Assay results published in ChEMBL document CHEMBL3751674, “Synthesis, antimicrobial activity of Schiff base compounds of cinnamaldehyde and amino acids” (2016).

Key:
Assay type in all cases: functional
Conditions in all cases: read-out: DIZ
Penicillium citrinum [1] = test: Antifungal activity against Penicillium citrinum at 0.03 mol/L after 2 to 4 days by paper disc method
Aspergillus niger [2] = test: Antifungal activity against Aspergillus niger at 0.06 mol/L after 2 to 4 days by paper disc method
Escherichia coli [3] = test: Antibacterial activity against Escherichia coli at 0.25 mol/L after 12 to 24 hrs by paper disc method
Staphylococcus aureus [4] = test: Antibacterial activity against Staphylococcus aureus at 0.06 mol/L after 12 to 24 hrs by paper disc method
Aspergillus niger [5] = test: Antifungal activity against Aspergillus niger at 0.13 mol/L after 2 to 4 days by paper disc method
Staphylococcus aureus [6] = test: Antibacterial activity against Staphylococcus aureus at 0.03 mol/L after 12 to 24 hrs by paper disc method
Escherichia coli [7] = test: Antibacterial activity against Escherichia coli at 0.13 mol/L after 12 to 24 hrs by paper disc method
Staphylococcus aureus [8] = test: Antibacterial activity against Staphylococcus aureus at 0.25 mol/L after 12 to 24 hrs by paper disc method
Aspergillus niger [9] = test: Antifungal activity against Aspergillus niger at 0.03 mol/L after 2 to 4 days by paper disc method
Penicillium citrinum [10] = test: Antifungal activity against Penicillium citrinum at 0.25 mol/L after 2 to 4 days by paper disc method
Aspergillus niger [11] = test: Antifungal activity against Aspergillus niger at 0.25 mol/L after 2 to 4 days by paper disc method
Staphylococcus aureus [12] = test: Antibacterial activity against Staphylococcus aureus at 0.13 mol/L after 12 to 24 hrs by paper disc method
Penicillium citrinum [13] = test: Antifungal activity against Penicillium citrinum at 0.06 mol/L after 2 to 4 days by paper disc method
Penicillium citrinum [14] = test: Antifungal activity against Penicillium citrinum at 0.13 mol/L after 2 to 4 days by paper disc method
Escherichia coli [15] = test: Antibacterial activity against Escherichia coli at 0.06 mol/L after 12 to 24 hrs by paper disc method
Escherichia coli [16] = test: Antibacterial activity against Escherichia coli at 0.03 mol/L after 12 to 24 hrs by paper disc method

Structure (SMILES) | zone of inhibition at 30000 µM (Penicillium citrinum [1]) [mm] | zone of inhibition at 60000 µM (Aspergillus niger [2]) [mm] | zone of inhibition at 250000 µM (Escherichia coli [3]) [mm] | zone of inhibition at 60000 µM (Staphylococcus aureus [4]) [mm] | zone of inhibition at 130000 µM (Aspergillus niger [5]) [mm] | zone of inhibition at 30000 µM (Staphylococcus aureus [6]) [mm] | zone of inhibition at 130000 µM (Escherichia coli [7]) [mm] | zone of inhibition at 250000 µM (Staphylococcus aureus [8]) [mm] | zone of inhibition at 30000 µM (Aspergillus niger [9]) [mm] | zone of inhibition at 250000 µM (Penicillium citrinum [10]) [mm] | zone of inhibition at 250000 µM (Aspergillus niger [11]) [mm] | zone of inhibition at 130000 µM (Staphylococcus aureus [12]) [mm] | zone of inhibition at 60000 µM (Penicillium citrinum [13]) [mm] | zone of inhibition at 130000 µM (Penicillium citrinum [14]) [mm] | zone of inhibition at 60000 µM (Escherichia coli [15]) [mm] | zone of inhibition at 30000 µM (Escherichia coli [16]) [mm]
CC(C)[C@H](/N=C/C=C/c1ccccc1)C(=O)O | 9 | 13 | 9 | 8 | 12.3 | 8 | 8 | 8 | 8 | 12.5 | 12.7 | 8 | 8 | 9.7 | 11 | 8
O=C(O)[C@H](Cc1ccc(O)cc1)/N=C/C=C/c1ccccc1 | 12.3 | 12.3 | 31.3 | 8 | 18.7 | 8 | 19.5 | 14.2 | 8 | 12 | 12 | 11.5 | 11 | 11.5 | 8 | 12
CC(C)C[C@H](/N=C/C=C/c1ccc(Cl)cc1)C(=O)O | 16.5 | 18.7 | 17 | 16.8 | 20.7 | 8.7 | 17.8 | 28.3 | 18.3 | 28.3 | 29.3 | 11 | 19.7 | 25.7 | 10 | 9.3
O=C(O)[C@H](Cc1ccc(O)cc1)/N=C/C=C/c1ccc(Cl)cc1 | 11.5 | 15.5 | 17.8 | 11.7 | 15.7 | 9.7 | 12 | 19.3 | 12.3 | 25 | 29.7 | 12.7 | 15.7 | 23.5 | 15.7 | 13.7
COc1ccc(/C=C/C=N/[C@H](C(=O)O)C(C)C)cc1 | 8 | 10.3 | 9 | 8 | 13.3 | 8 | 8 | 9 | 9 | 14.3 | 16.7 | 8 | 12.7 | 11.7 | 12 | 8
COc1ccc(/C=C/C=N/[C@@H](Cc2ccc(O)cc2)C(=O)O)cc1 | 10.8 | 13.8 | 18 | 8 | 14.7 | 8 | 12.3 | 8.5 | 10.3 | 24 | 19.5 | 8.7 | 19 | 16.5 | 8.3 | 12
O=C(O)[C@H](Cc1ccccc1)/N=C/C=C/c1ccccc1 | 8 | 8.7 | 8 | 8 | 9.2 | 10 | 8 | 11 | 8 | 10.7 | 10.7 | 8 | 8 | 9.7 | 8 | 8
COc1ccc(/C=C/C=N/[C@@H](Cc2ccccc2)C(=O)O)cc1 | 14 | 10.8 | 12.3 | 8 | 13 | 8 | 13.8 | 12 | 18.3 | 24.7 | 19 | 8.3 | 10.5 | 19.7 | 8 | 13.2
CC(C)[C@H](/N=C/C=C/c1ccc(Cl)cc1)C(=O)O | 20.7 | 19 | 20.5 | 13.5 | 24 | 11 | 15.3 | 33 | 15.7 | 33.5 | 27.3 | 15.3 | 19.5 | 31 | 11 | 12
O=C(O)[C@H](Cc1ccccc1)/N=C/C=C/c1ccc(Cl)cc1 | 18.3 | 21 | 19.5 | 13.3 | 19.7 | 9 | 26 | 33 | 12.3 | 35 | 26 | 29 | 21 | 23.2 | 19 | 9.2
O=C(O)c1cn(C2CC2)c2cc(N3CCNCC3)c(F)cc2c1=O [CIPROFLOXACIN] | – | – | 24.3 | 16.7 | – | 16 | 23.3 | 21 | – | – | – | 21 | – | – | – | 22.3
OC(Cn1cncn1)(Cn1cncn1)c1ccc(F)cc1F [FLUCONAZOLE] | 8 | 17.7 | – | – | 18.7 | – | – | – | 14.5 | 13.3 | 25 | – | 9.2 | 13 | – | –
